The target of data set [1] is PcpS (Pseudomonas aeruginosa, UniProt Q9I4H2). Briefly: BpsA coupled PPTase inhibition assay, PcpS. Format: biochemical. The settings on record: for IC50: 95% CI in parentheses; for Ki: Cheng-Prusoff, competitive inhibition.
For data set [2], the target named is Sfp (Bacillus spizizenii, UniProt G4NQW2). Briefly: BpsA coupled PPTase inhibition assay, Sfp. Format: biochemical, B. subtilis subsp. spizizenii ATCC6633. The settings on record: for IC50: IC50, Sfp, 95% CI in parentheses; for Ki: Sfp, Cheng-Prusoff, competitive inhibition.
Sequence of Sfp (G4NQW2 entry or part of it): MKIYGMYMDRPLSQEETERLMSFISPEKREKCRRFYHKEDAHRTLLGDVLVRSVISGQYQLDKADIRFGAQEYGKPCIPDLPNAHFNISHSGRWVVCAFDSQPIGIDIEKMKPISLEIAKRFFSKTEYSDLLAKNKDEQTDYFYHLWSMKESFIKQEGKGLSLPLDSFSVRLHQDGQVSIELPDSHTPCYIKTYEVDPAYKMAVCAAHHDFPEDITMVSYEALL
The target of data set [3] is PP1183 (Pseudomonas putida, UniProt Q88NM4). Briefly: BpsA coupled PPTase inhibition assay, PP1183. Format: biochemical, P. putida KT2440. The settings on record: for IC50: IC50, PP1183, 95% CI in parentheses; for Ki: PP1183, Cheng-Prusoff, competitive inhibition.
Sequence of PP1183 (Q88NM4 entry or part of it): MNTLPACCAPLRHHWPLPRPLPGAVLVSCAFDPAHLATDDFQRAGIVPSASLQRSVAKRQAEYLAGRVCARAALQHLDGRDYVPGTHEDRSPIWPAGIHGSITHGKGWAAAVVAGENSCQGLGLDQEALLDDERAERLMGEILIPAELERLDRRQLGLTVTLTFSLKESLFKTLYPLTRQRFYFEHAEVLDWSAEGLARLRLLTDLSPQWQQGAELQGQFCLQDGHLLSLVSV
Data set [4] concerns the target T1, holo-BpsA (Streptomyces lavendulae, UniProt Q1MWN4).
T1 construct: 6His; made in house; host or cells: E. coli
T1 sequence (Q1MWN4 1-1282): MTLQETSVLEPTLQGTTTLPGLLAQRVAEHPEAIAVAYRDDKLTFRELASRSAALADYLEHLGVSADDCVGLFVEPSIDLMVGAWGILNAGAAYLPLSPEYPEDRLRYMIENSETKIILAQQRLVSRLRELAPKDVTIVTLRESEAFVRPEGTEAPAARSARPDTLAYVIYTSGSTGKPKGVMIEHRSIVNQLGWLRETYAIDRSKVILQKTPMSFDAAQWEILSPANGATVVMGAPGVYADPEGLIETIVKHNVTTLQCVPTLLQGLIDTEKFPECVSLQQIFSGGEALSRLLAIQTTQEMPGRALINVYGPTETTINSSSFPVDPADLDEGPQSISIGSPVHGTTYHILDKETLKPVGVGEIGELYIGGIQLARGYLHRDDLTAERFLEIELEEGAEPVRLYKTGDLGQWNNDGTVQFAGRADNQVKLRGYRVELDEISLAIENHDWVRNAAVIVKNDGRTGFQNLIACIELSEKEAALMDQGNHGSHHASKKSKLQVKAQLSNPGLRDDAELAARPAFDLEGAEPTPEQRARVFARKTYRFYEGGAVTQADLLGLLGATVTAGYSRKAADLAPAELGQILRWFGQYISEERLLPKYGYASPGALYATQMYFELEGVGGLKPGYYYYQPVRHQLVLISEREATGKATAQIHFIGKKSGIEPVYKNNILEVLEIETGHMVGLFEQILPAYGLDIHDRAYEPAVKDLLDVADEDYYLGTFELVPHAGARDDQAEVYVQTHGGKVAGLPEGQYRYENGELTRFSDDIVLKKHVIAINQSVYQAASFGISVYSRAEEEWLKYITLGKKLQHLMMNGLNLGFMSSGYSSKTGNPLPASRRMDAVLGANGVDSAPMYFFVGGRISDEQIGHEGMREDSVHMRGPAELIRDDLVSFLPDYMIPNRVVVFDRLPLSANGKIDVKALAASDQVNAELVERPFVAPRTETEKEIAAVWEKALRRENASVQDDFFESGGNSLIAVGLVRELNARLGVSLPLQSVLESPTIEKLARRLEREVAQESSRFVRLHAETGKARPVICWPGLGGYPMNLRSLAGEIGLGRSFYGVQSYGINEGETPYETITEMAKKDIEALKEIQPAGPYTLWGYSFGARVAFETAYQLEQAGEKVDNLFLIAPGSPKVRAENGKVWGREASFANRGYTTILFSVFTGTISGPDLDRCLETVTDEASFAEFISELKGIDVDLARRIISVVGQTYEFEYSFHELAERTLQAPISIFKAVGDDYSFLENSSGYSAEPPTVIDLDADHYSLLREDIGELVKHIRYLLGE
Nature of the data set: Inhibition of indigoidine synthesis by pre-activated holo-BpsA (counter-screen). Format: biochemical, S. lavendulae ATCC 11924. The settings on record: pre-activated holo-BpsA in isolation. (The purpose of a counterscreen is to sort out artefacts and off-target activity.)

The subject of data set [5] is PcpS. Nature of the data set: Screening of the LOPAC1280 library for PcpS inhibitors with the BpsA coupled assay. Format: biochemical, P. aeruginosa. Conditions: compound approximately 18 μM; 0.18 μM PcpS.
Procedure: 1.8 μL of each compound from a Lopac^1280 library plate was added to 30 μL of 10% DMSO in MQ using a CyBio CyBi-well, giving a final compound concentration of approximately 18 μM. Next 50 μl, of a master mix containing 5 μM Co-enzyme A, 1.66 μM BpsA, 20 mM MgCl2, 5 mM ATP, 8 mM L-Gln, 100 mM Tris-HCl pH 7.8 and MQ was added. To initiate the reaction 20 μL of PcpS at a final reaction concentration of 0.18 μM and MQ was added rapidly, using an automatic dispensing Pipette. The plate was then shaken for 10 seconds at 1000 rpm to mix the compounds. The plate was then read 25 times to measure the Absorbance at 590 nm (with 20 second intervals between each read) in an EnSpire plate reader at 25° C. […] Negative and positive controls were established in wells in these columns, and used to monitor the reaction. […] Both control reactions were run in triplicate.
1.8 μL of each compound from a Lopac^1280 library plate was added to 304 of 10% DMSO in MQ using a CyBio CyBi-well, giving a final compound concentration of approximately 18 μM. Next 50 μL of a master mix containing 5 μM Co-enzyme A, 1.66 μM BpsA, 20 mM MgCl2, 5 mM ATP, 8 mM L-Gln, 100 mM Tris-HCl pH 7.8 and MQ was added. […] The plate was then read 25 times to measure the Absorbance at 590 nm (with 20 second intervals between each read) in an EnSpire plate reader at 25° C. […]
Data set [6] addresses all three PPTases. Briefly: BpsA coupled PPTase inhibition assay, summary over all three PPTases.
Procedure: Each of the three PPTases was evaluated for inhibition across a two-fold serial dilution series of 6-NOBP (250-0.12 μM) with CoA concentration fixed at either 10 or 2.5 μM. […] Derived Ki values were most consistent between CoA concentrations when the Cheng-Prusoff equation for competitive inhibition was employed.
Triplicate two fold serial dilution series (250-0.12 μM) of the previously identified PPTase inhibitor 6-NOBP were established in a final volume of 50 ml 10% DMSO in a 96 wp. 100 μL of reaction mix (20 or 5 μM CoA, 5 mM ATP, 20 mM MgCl2, 8 mM L-Gln and 100 mM Tris-CL, 1.66 μM apo-BpsA, pH 7.8) was then added to each well. Reactions were then initiated by addition of 50 μL 0.32-1.0 μM PPTase in water to each well followed by mixing at 1000 rpm for 10 s. A590 values were then recorded and PPTase velocities determined as previously described.
Data set [7] deals with PcpS. Nature of the data set: Qualitative assessment of PcpS inhibition relative to 6-NOBP. The format is biochemical, P. aeruginosa. Conditions: each inhibitor 20 μM; 0.18 μM PcpS. The method, then: Duplicate wells with different inhibitors added. The No PcpS wells have ddH2O added instead of PcpS. The BpsA only wells have DMSO added instead of an inhibitor. The 6-NOBP wells have had 6-NOBP added at a final concentration of 20 μM. The Bay 11-7085 wells have had Bay 11-7085 added to a final concentration of 20 μM.
Bay 11-7085 was then serially diluted from 20 μM to 0.625 μM across the wells. The reaction was initiated by the addition of PcpS to a final concentration of 0.18 μM and indigoidine production was then monitored at 590 nm. Each concentration was tested in triplicate and the average of the three wells was taken to calculate the maximum velocity. The maximum velocity in each well was expressed as a percentage of the maximum velocity in the wells where no Bay11-7085 was present. For qualitative assessment of Bay11-7085 mediated inhibition of PcpS relative to 6-NOBP, duplicate wells were established with either 20 μM of each inhibitor or with DMSO added instead of an inhibitor (positive control). For a negative control, ddH2O was added instead of PcpS. Reactions were initiated by addition of 20 μL of PcpS at a final reaction concentration of 0.18 μM (or H2O for the negative control) using an automatic dispensing Pipette. The plate was then shaken for 10 seconds at 1000 rpm to mix the compounds, and incubated on the benchtop until the positive control wells had gone dark blue.

Data set [8] in a line: Effect of pH on indigoidine stability (loss of colouration, A590). Format: physicochemical. The settings on record: culture supernatant, 50 mM sodium phosphate buffer, 20 min. The method, then:
(A) Diluted sterile supernatant from an indigoidine producing culture was incubated for 20 min with 50 mM sodium phosphate buffer at each of the indicated pH values in triplicate. Loss of colouration was then assessed by measuring A590. Error bars are presented as +/− one standard deviation. (B) Indigoidine reactions differing only in the pH of the buffer used are shown.
The supernatant from BpsA-expressing cultures reached a much higher A590 (˜1.2) than the maximum achieved from any in vitro experiments (˜0.3) (not shown). Without wishing to be bound by theory, the inventors hypothesized that that since indigoidine produced and exported from a cell in vivo was effectively removed from exposure to intracellular enzymes, the loss of in vitro product may have been due to enzymatic degradation in the in vitro assay preparations. This could be due to BpsA itself, the activating PPTase or an undetected contaminating species. To test this possibility, filter sterilized culture supernatant containing indigoidine was incubated with various concentrations of each enzyme preparation used for in vitro assays. No difference in pigment levels resulted from this treatment. It was concluded that the loss of pigmentation seen in vitro was not enzyme catalysed. […] A more detailed analysis of the relationship between pH and pigment stability was then conducted. […]

In data set [9] the test system is E. coli. The format is cell-based. The settings on record: high levels of active BpsA, excess L-Gln, extended time. From the text: In one embodiment, activation of the NRPS BpsA then produces the dye, indigoidine. […] Due to this toxicity, E. coli cells expressing high levels of active BpsA in the presence of excess L-Gln for an extended period of time are not viable. Toxicity may be avoided by plating an E. coli reporter strain comprising a CNA expression construct on a selection medium lacking an inducer of BpsA expression. In one embodiment the inducer is IPTG.
We constructed plasmids that allowed IPTG regulated co-expression of a candidate PPTase and BpsA in E. coli BL21(DE3). To enable IPTG regulated co-expression the BpsA gene of S. lavendulae ATCC 11924 was cloned into pCDFDUET-1 (Novagen) and three candidate PPTases into the (origin of replication compatible) vector pET28a(+). […] In contrast, if IPTG was absent from the medium viable co-transformed cells were recovered with good efficiency (not shown). […] In order to circumvent this problem we employed auto-induction agar plates, prepared by addition of 1.5% agar to Studier ZYP-5052 auto-induction medium (Studier 2005). Use of auto-induction agar plates allowed for both rapid growth and efficient induction of pigment production following extended incubation at room temperature.
Initial trials were run using E. coli harbouring a P. putida PPTase expression plasmid. […]

The conditions of data set [10]: Kuhn et al, 1965; cited from earlier work.

Broadly, the IC50 is the point on the concentration scale where inhibition reaches its midpoint.

Sequence of PcpS (Pseudomonas aeruginosa, UniProt Q9I4H2) (Q9I4H2 entry or part of it): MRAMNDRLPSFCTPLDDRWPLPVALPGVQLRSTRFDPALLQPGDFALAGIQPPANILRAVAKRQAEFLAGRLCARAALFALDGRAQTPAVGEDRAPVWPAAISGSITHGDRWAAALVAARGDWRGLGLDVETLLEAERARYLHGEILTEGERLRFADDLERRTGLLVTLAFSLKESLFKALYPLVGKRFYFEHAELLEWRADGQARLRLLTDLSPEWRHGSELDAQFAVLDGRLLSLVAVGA

As to `O=Nc1ccc2oc(=O)ccc2c1` [6-NOBP], the IC50 in [1] (1.25 μM CoA) worked out at 4.05 µM; in [1] (5 μM CoA) it was 10.8 µM; in [2] (1.25 μM CoA), 2.11 µM; in data set [2] (5 μM CoA), 9.06 µM; in [3] (1.25 μM CoA) it was 3.7 µM; in data set [3] (5 μM CoA), 9.81 µM. Also, the IC50 in data set [4] was 29.2 µM; in data set [6] (read-out: IC50 values, range over the three PPTases, CoA concentration set at 5 μM), 9.1 to 10.8 µM. Further, the Ki in data set [1] (1.25 μM CoA) is 3.1 µM; in data set [1] (5 μM CoA) it was 4.7 µM; in data set [2] (1.25 μM CoA) it was 0.7 µM; in data set [2] (5 μM CoA) it was 1 µM; in data set [3] (1.25 μM CoA) it was 3.3 µM; in [3] (5 μM CoA) it was 6.8 µM. For the same molecule, the Ki in [6] (read-out: K, values, range over the three PPTases, converted from IC50 with Km of each PPTase) was in the range of 0.5 to 7.5 µM. The “Outcome in high throughput screen for PcpS inhibitors” value in data set [5] was “weak PcpS inhibitor”.
Regarding `CC(C)(C)c1ccc(S(=O)(=O)/C=C/C#N)cc1` [Bay11-7085], in [7], the “Qualitative inhibition of PcpS relative to 6-NOBP” value is recorded as “clearly a stronger inhibitor of PcpS than 6-NOBP”.
As to indigoidine, the “Pigment stability versus pH” value in [8] is recorded as “decolouration occurred to a greater extent at higher pH”. In addition, the “Toxicity to E. coli” value in data set [9] was “toxic to E. coli over time”. For the same molecule, in [10], the “Pigment stability versus pH (previous observations)” value is reported as “unstable at alkaline pH”.

The values are drawn from US20130260436A1, “Methods of Identifying and Characterizing Natural Product Gene Clusters” (Victoria LInk Limited, priority 2010, published 2013).
